From ChEMBL document CHEMBL1201862, “PubChem BioAssay data set” (2004)
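Dose response: 5 concentrations. Exposure: 48 h. Format: 96-well plates. Endpoint: linear interpolation; highest concentration if not reached. GI50 = concentration required for 50% inhibition of growth.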 Calls of active or inactive are those of the source. Rule as the data show it: active = GI50 up to about 1.1 µM and inactive = higher.

Key:
Assay in all cases: NCI anticancer screen, dose series, 48 h
HL-60 = system: HL-60
LOX IMVI = system: LOX IMVI
SF-268 = system: SF-268
SNB-19 = system: SNB-19
M14 = system: M14
MDA-MB-435 = system: MDA-MB-435
CAKI-1 = system: CAKI-1
HOP-62 = system: HOP-62
SNB-75 = system: SNB-75
SF-295 = system: SF-295
BT-549 = system: BT-549
SW-620 = system: SW-620
EKVX = system: EKVX
NCI/ADR-RES = system: NCI/ADR-RES
786-0 = system: 786-0
COLO 205 = system: COLO 205
ACHN = system: ACHN
A549 = system: A549
SK-OV-3 = system: SK-OV-3
UACC-62 = system: UACC-62

SMILES | GI50 (HL-60) | GI50 (LOX IMVI) | GI50 (SF-268) | GI50 (SNB-19) | GI50 (M14) | GI50 (MDA-MB-435) | GI50 (CAKI-1) | GI50 (HOP-62) | GI50 (SNB-75) | GI50 (SF-295) | GI50 (BT-549) | GI50 (SW-620) | GI50 (EKVX) | GI50 (NCI/ADR-RES) | GI50 (786-0) | GI50 (COLO 205) | GI50 (ACHN) | GI50 (A549) | GI50 (SK-OV-3) | GI50 (UACC-62)
CCn1c2c(c3c(C(=O)OC)c(O)ccc31)C(=O)c1ccccc1C2=O | 22.1 µM (inactive) | 13.2 µM (inactive) | 15.3 µM (inactive) | 22.3 µM (inactive) | 14.2 µM (inactive) | 12.9 µM (inactive) | 15.5 µM (inactive) | 15.7 µM (inactive) | 4.36 µM (inactive) | 17.3 µM (inactive) | 12.5 µM (inactive) | 15 µM (inactive) | 26 µM (inactive) | 16.6 µM (inactive) | 12.2 µM (inactive) | 17.1 µM (inactive) | 4.69 µM (inactive) | 13.9 µM (inactive) | 5 µM (inactive) | –
O=C(c1ccccc1)n1c2ccc(Br)cc2c2nc3ccccc3nc21 | > 100 µM (inactive) | > 100 µM (inactive) | > 100 µM (inactive) | > 100 µM (inactive) | > 100 µM (inactive) | > 100 µM (inactive) | > 100 µM (inactive) | 15.9 µM (inactive) | 46.2 µM (inactive) | > 100 µM (inactive) | > 100 µM (inactive) | > 100 µM (inactive) | > 100 µM (inactive) | > 100 µM (inactive) | 37.8 µM (inactive) | > 100 µM (inactive) | 57.1 µM (inactive) | – | – | > 100 µM (inactive)
O=C1C(Cl)=C(Cl)C(Cl)(Cl)C(Cl)C1(Cl)Cl (centres undefined) | 18.4 µM (inactive) | 19.4 µM (inactive) | 19.6 µM (inactive) | 22.4 µM (inactive) | 25.6 µM (inactive) | 23.1 µM (inactive) | – | 23.4 µM (inactive) | 21.5 µM (inactive) | 21.2 µM (inactive) | 19.7 µM (inactive) | 22 µM (inactive) | 20.8 µM (inactive) | 25.3 µM (inactive) | 37.8 µM (inactive) | 17.9 µM (inactive) | 29.8 µM (inactive) | 20.9 µM (inactive) | 26.2 µM (inactive) | 16.7 µM (inactive)
Cc1nc2ccccc2n1Cc1nnc(-c2ccccc2)o1 | > 100 µM (inactive) | 25.1 µM (inactive) | > 100 µM (inactive) | > 100 µM (inactive) | > 100 µM (inactive) | 0.104 µM (active) | – | > 100 µM (inactive) | 46.3 µM (inactive) | > 100 µM (inactive) | > 100 µM (inactive) | 90.2 µM (inactive) | > 100 µM (inactive) | > 100 µM (inactive) | 38.7 µM (inactive) | 74.6 µM (inactive) | > 100 µM (inactive) | 52.4 µM (inactive) | > 100 µM (inactive) | > 100 µM (inactive)
CC(C)(C)OC(=O)N1CC(COS(C)(=O)=O)c2ccc(O)cc21 (centres undefined) | 1.24 µM (inactive) | – | 1.72 µM (inactive) | 2.7 µM (inactive) | 1.72 µM (inactive) | 1.8 µM (inactive) | 2.42 µM (inactive) | 3.3 µM (inactive) | 1.46 µM (inactive) | 2.91 µM (inactive) | 1.52 µM (inactive) | 2.1 µM (inactive) | 2.23 µM (inactive) | 1.74 µM (inactive) | 2.59 µM (inactive) | 1.58 µM (inactive) | 0.684 µM (active) | 3.12 µM (inactive) | 3.15 µM (inactive) | 1.73 µM (inactive)
CC1CCC(C(C)C2C(O)CC3C4CC=C5CC(O)CCC5(C)C4CCC32C)NC1 (centres undefined) | 17.3 µM (inactive) | 21.3 µM (inactive) | > 100 µM (inactive) | 25.7 µM (inactive) | > 100 µM (inactive) | 30.9 µM (inactive) | – | 27.7 µM (inactive) | 28.2 µM (inactive) | – | > 100 µM (inactive) | 31.7 µM (inactive) | > 100 µM (inactive) | 23.4 µM (inactive) | 32.2 µM (inactive) | > 100 µM (inactive) | 42 µM (inactive) | 83 µM (inactive) | > 100 µM (inactive) | 49.5 µM (inactive)
C[n+]1c(-c2ccc(/C=N\NC(=O)c3ccc(C(=O)N/N=C/c4ccc(-c5cn6ccsc6[n+]5C)cc4)cc3)cc2)cn2ccsc21 | 16.5 µM (inactive) | – | – | 24.6 µM (inactive) | 17.8 µM (inactive) | 15.8 µM (inactive) | 18.7 µM (inactive) | 17.9 µM (inactive) | 23.3 µM (inactive) | – | 16.5 µM (inactive) | 18.5 µM (inactive) | 15.8 µM (inactive) | 17.7 µM (inactive) | 16.6 µM (inactive) | 25 µM (inactive) | 17.9 µM (inactive) | 24.5 µM (inactive) | 46.5 µM (inactive) | 20 µM (inactive)
O=C(/C=C/c1ccccc1)c1cc(CN2CCOCC2)c(O)c(CN2CCOCC2)c1 | 4.57 µM (inactive) | 4.65 µM (inactive) | 19.1 µM (inactive) | 94 µM (inactive) | 17.9 µM (inactive) | 14.5 µM (inactive) | 2.26 µM (inactive) | 16.8 µM (inactive) | 19.3 µM (inactive) | 19.1 µM (inactive) | 28 µM (inactive) | 12.3 µM (inactive) | 25.3 µM (inactive) | 25.5 µM (inactive) | 9.42 µM (inactive) | 11.3 µM (inactive) | 2.32 µM (inactive) | 17.9 µM (inactive) | – | 17 µM (inactive)
Cn1c(=O)oc2cc(C(=O)CSC(=S)N3CCCCCC3)ccc21 | 51.8 µM (inactive) | – | > 100 µM (inactive) | > 100 µM (inactive) | > 100 µM (inactive) | > 100 µM (inactive) | > 100 µM (inactive) | 61.1 µM (inactive) | > 100 µM (inactive) | 87.9 µM (inactive) | > 100 µM (inactive) | > 100 µM (inactive) | > 100 µM (inactive) | 54.2 µM (inactive) | > 100 µM (inactive) | > 100 µM (inactive) | > 100 µM (inactive) | > 100 µM (inactive) | > 100 µM (inactive) | > 100 µM (inactive)
Cc1c(S(=O)(=O)c2ccccc2)c(N)n(Cc2ccccc2)c1C | > 100 µM (inactive) | – | 80.5 µM (inactive) | > 100 µM (inactive) | 7.08 µM (inactive) | > 100 µM (inactive) | > 100 µM (inactive) | – | > 100 µM (inactive) | > 100 µM (inactive) | > 100 µM (inactive) | > 100 µM (inactive) | > 100 µM (inactive) | > 100 µM (inactive) | > 100 µM (inactive) | > 100 µM (inactive) | > 100 µM (inactive) | > 100 µM (inactive) | > 100 µM (inactive) | > 100 µM (inactive)
OC1CN2Cc3cc4c(cc3[C@]13C=C[C@@H](O)CC23)OCO4 (some centres undefined) | 21.2 µM (inactive) | 30 µM (inactive) | 29.3 µM (inactive) | 22.2 µM (inactive) | 20.5 µM (inactive) | 20 µM (inactive) | 11.9 µM (inactive) | 41.1 µM (inactive) | – | 33.6 µM (inactive) | 33.4 µM (inactive) | 28 µM (inactive) | 15.4 µM (inactive) | 54.3 µM (inactive) | 20.9 µM (inactive) | 22.3 µM (inactive) | 7.85 µM (inactive) | 19.5 µM (inactive) | 20.2 µM (inactive) | 33 µM (inactive)
